Test results reported in patent US20100093541A1, “HERBICIDE COMBINATION COMPRISING DIMETHOXYTRIAZINYL SUBSTITUTED DIFLUOROMETHANESULFONYLANILIDES” (BAYER CROPSCIENCE AG, priority 2008, published 2010).

Assays:
Assay type in all cases: in vivo
[1] = tested on: Triticum aestivum (TRZAS); experiment: Post-emergence action, greenhouse pot test, visual scoring
Procedure: (§1) Seeds or rhizome pieces of mono- and dicotyledonous harmful and useful plants were placed in peat pots (diameter 4 cm) filled with sandy loam and then covered with soil. The pots were kept in a greenhouse under optimum conditions. In addition, harmful plants encountered in paddy rice cultivation were cultivated in pots with a water level 2 cm above the soil surface.
(§2) About three weeks after the start of the cultivation, the test plants were treated at the 2- to 3-leaf stage. The herbicides, formulated as powder or liquid concentrates, were, either alone or in the combinations according to the invention, sprayed in various dosages on to the green parts of the plants using an application rate of 600 l of water/ha (converted). For further cultivation of the plants, the pots were then again kept under optimum conditions in a greenhouse.
(§3) The visual scoring of the herbicidal effects was carried out in intervals up to 21 days after the treatment. Scoring was carried out in percent in comparison to the untreated control plants. 0%=no herbicidal activity, 100%=complete herbicidal activity=complete kill.
(§4) The percentages from the treatments with the herbicides alone (=individual application) and with the combinations according to the invention (=mixtures) were employed to calculate interactions using the method of Colby. When the observed efficacies of the mixtures exceed the formal sum of the values of the tests with individual applications, they also exceed the expected value according to Colby, which is calculated using the formula below (cf. S. R. Colby; in Weeds 15 (1967) pp. 20 to 22):
(§5) • A, B=activity of components A and B in percent at a dosage of a and b g of ai/ha (=gramm of active substance per hectare), respectively. • E=expected value in % at a dosage of a+b g of ai/ha.
(§6) The combinations according to the invention of herbicides from group (A) with herbicides from group (B) were tested on a broad spectrum of important harmful plants (weed grasses, broad-leaved weeds/Cyperaceae) and useful plants: Triticum aestivum (TRZAS), Stellaria media (STEME), Lolium multiflorum (LOLMU), Veronica persica (VERPE), Alopecurus myosuroides (ALOMY), Matricaria inodora (MATIN), Brassica napus (BRSNW), Viola tricolor (VIOTR), Avena fatua (AVEFA), Amaranthus retroflexus (AMARE), Zea mays (ZEAMX), Pharbitis purpurea (PHBPU), Setaria viridis (SETVI), Fallopia (ex Polygonum) convolvulus (POLCO), Echinochloa crus-galli (ECHCG), Abuthilon theophrasti (ABUTH), Cyperus esculentus (CYPES), Oryza sativa (ORYSA).
(§7) Of particular interest are the results shown in the tables (Tab.) below, where the following key is used: • (1) EPPO code (former Bayer code) for the treated plant (see above) • (2) Time of scoring: DAT (days after treatment) • (3) Component A tested (identifying number) • (4) Component B tested (identifying number) • (5) Dosage component A [g of ai/ha] • (6) Dosage component B [g of ai/ha] • (7) % activity found • (8) E value (calculated according to Colby; see above) • (9) Comments: “SYNERGY”=synergistic interaction (E value<% activity found); “SAFENING”=safener action on useful plant (E value>% activity found)

Zea mays (ZEAMX) = experiment: as above
Procedure: as §1, §2, §3, §4, §5, §6, §7

Oryza sativa (ORYSA) = experiment: as above; settings: 21 DAT, component B 150 g of ai/ha
Procedure: as §1, §2, §3, §4, §5, §6, §7

[2] = tested on: Matricaria inodora (MATIN); experiment: Post-emergence action against weeds, greenhouse pot test, visual scoring; settings: 21 DAT
Procedure: as §1, §2, §3, §4, §5, §6, §7

Viola tricolor (VIOTR) = experiment: as above
Procedure: as §1, §2, §3, §4, §5, §6, §7

[3] = tested on: Fallopia (ex Polygonum) convolvulus (POLCO); experiment: as above; settings: 10 DAT, component B 150 g of ai/ha
Procedure: as §1, §2, §3, §4, §5, §6, §7

Setaria viridis (SETVI) = experiment: as above
Procedure: as §1, §2, §3, §4, §5, §6, §7

Avena fatua (AVEFA) = experiment: as above
Procedure: as §1, §2, §3, §4, §5, §6, §7

[4] = tested on: Cyperus esculentus (CYPES); experiment: as above
Procedure: as §1, §2, §3, §4, §5

[5] = tested on: Alopecurus myosuroides (ALOMY); experiment: as above; settings: 21 DAT, component B 40 g of ai/ha
Procedure: as §1, §2, §3, §4, §5, §6, §7

[6] = 21 DAT, component B 150 g of ai/ha
[7] = 10 DAT, component B 50 g of ai/ha
[8] = 21 DAT, component B 50 g of ai/ha
[9] = 21 DAT, component B 40 g of ai/ha
[10] = 21 DAT, component B 120 g of ai/ha

## N#Cc1cc(Br)c(O)c(Br)c1 [B1-1, 3,5-dibromo-4-hydroxybenzonitrile]
[1]; [6]
  % activity found: 0%
Zea mays (ZEAMX); [7]
  % activity found: 0%
Zea mays (ZEAMX); 10 DAT, component B 150 g of ai/ha
  % activity found: 20%
Zea mays (ZEAMX); [8]
  % activity found: 0%
Oryza sativa (ORYSA)
  % activity found: 0%
[2]; component B 150 g of ai/ha
  % activity found: 70%
[2]; component B 150 g of ai/ha, Table 9
  % activity found: 60%
Viola tricolor (VIOTR); [7]
  % activity found: 20%
Viola tricolor (VIOTR); [6]
  % activity found: 20%
[3]
  % activity found: 10%
Setaria viridis (SETVI); [7]
  % activity found: 20%
Setaria viridis (SETVI); [8]
  % activity found: 20%
Setaria viridis (SETVI); [6]
  % activity found: 20%
Avena fatua (AVEFA); [7]
  % activity found: 0%
[4]; [7]
  % activity found: 0%
[4]; [8]
  % activity found: 0%
[4]; [6]
  % activity found: 0%

## COc1nc(OC)nc(C(=O)c2cccc(F)c2N(C)S(=O)(=O)C(F)F)n1 [A-1]
[1]; 21 DAT, component A 12 g of ai/ha, Table 16
  % activity found: 0%

## C#CCN(C)c1c(C#N)cnn1-c1nn2c(c1Cl)CCCC2 [B1-4, 1-(3-chloro-4,5,6,7-tetrahydropyrazolo[1,5-a]pyridin-2-yl)-5-(methyl-2-propynylamino)-1H-pyrazole-4-carbonitrile]
[1]; 10 DAT, component B 40 g of ai/ha
  % activity found: 40%
[1]; 10 DAT, component B 120 g of ai/ha
  % activity found: 60%
[1]; [9]
  % activity found: 30%
[1]; [10]
  % activity found: 60%
[2]; component B 120 g of ai/ha
  % activity found: 80%
[5]
  % activity found: 30%
Avena fatua (AVEFA); [9]
  % activity found: 40%
[4]; [10]
  % activity found: 40%
